A short description of data set [1]: log P by HPLC on reversed-phase column (C 18), EEC Directive 79/831 Annex V.A8. The note with it: 55° C.; for LOGP_HCOOH: log P (HCOOH); for chromatographic logP: reversed-phase HPLC column (C 18). Format: physicochemical. The protocol:
Temperature: 55° C. […] Called log P (HCOOH) in the table. […] Called log P (neutral) in the table.

The test system of the next data set is Phaedon cochleariae. The data set can be described thus: Phaedon cochleariae spray test. Format: in vivo. The following applies: after 7 days, Chinese cabbage leaf discs; for pest or weed control at 100 g/ha / pest or weed control at 500 g/ha: Phaedon cochleariae, foliar, 168 h, read-out: efficacy (beetle larvae killed). In short, it runs like this: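 Chinese cabbage leaf discs sprayed with compound in acetone/DMF and emulsifier-containing water, then infested with mustard beetle larvae once dry. Efficacy in % scored after 7 days (100% = all larvae killed, 0% = none).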

The subject of a further data set is Spodoptera frugiperda. Nature of the data set: Spodoptera frugiperda spray test. The following applies: after 7 days, maize leaf discs. Type of data set: in vivo. In short, it runs like this: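 Maize leaf discs were sprayed with compound formulated in acetone/DMF and emulsifier-containing water, dried, then infested with Spodoptera frugiperda caterpillars. Percent kill was scored after 7 days, from 100% (all dead) to 0% (none dead).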

Setting [2] is: acidic range at pH 2.7, 0.1% aqueous formic acid and acetonitrile, HPLC on reversed-phase column (C 18).
[3] abbreviates: log P, neutral range, HPLC on reversed-phase column (C 18).
Where [4] appears, read: pH 2.7, LC-MS acidic range, pH 2.7, 0.1% formic acid/acetonitrile, read-out: log P (acidic) / log P (HCOOH).
Setting [5] is: pH 7.8, LC-MS neutral range, pH 7.8, ammonium hydrogencarbonate/acetonitrile, read-out: log P (neutral).
Setting [6] is: Spodoptera frugiperda, foliar, 168 h, application rate 500 g/ha, read-out: efficacy (caterpillars killed).
The mark [7] stands for this setting: acidic range pH 2.7, 0.1% aqueous formic acid and acetonitrile, reversed-phase column (C 18).
[8] abbreviates: log P (neutral), HPLC reversed-phase column (C 18).

Where two headings read alike, the source gives them in different places.

Turning to `N#Cc1ccc(CNC(=O)c2cc(-c3ccc(C(F)(F)F)cn3)cc(NC(=O)C3CC3)n2)cc1` [Example I-174, N-(4-Cyanobenzyl)-6′-[(cyclopropylcarbonyl)amino]-5-(trifluoromethyl)-2,4′-bipyridine-2′-carboxamide], the LOGP_HCOOH in data set [1] (setting [2]) is given as 3.25. The LOGP_NEUTRAL in data set [1] (setting [3]) came to 3.22. For the same compound, the chromatographic logP turned out to be 3.25 in data set [1] (setting [4]) and 3.22 in data set [1] (setting [5]). The pest or weed control at 100 g/ha with Phaedon cochleariae (application rate 100 g/ha) came to 100%. Besides, the pest or weed control at 500 g/ha in the data set with Phaedon cochleariae (application rate 500 g/ha) and in the data set on Spodoptera frugiperda (setting [6]) was 100% in each case.
Regarding `N#Cc1ccc(CNC(=O)c2cc(-c3ccc(OC(F)(F)C(F)(F)F)cc3)cc(NC(=O)C3CC3)n2)cc1` [Example I-191], the LOGP_HCOOH in data set [1] (setting [2]) is listed as 4.38. In addition, the “efficacy (beetle larvae killed)” value in the data set on Phaedon cochleariae (application rate 500 g/ha) was determined as 83%. Besides, the “efficacy (caterpillars killed)” value with Spodoptera frugiperda (application rate 500 g/ha) is on record as 100%.
Compound `CC(=O)Nc1cc(-c2ccc(OC(F)(F)F)cc2)cc(C(=O)NCc2ccc(C#N)cc2)n1` [Example I-204] showed an LOGP_NEUTRAL in data set [1] (setting [3]) of 3.27. Further, the “efficacy (beetle larvae killed)” value with Phaedon cochleariae (application rate 100 g/ha) and in the data set with Phaedon cochleariae (application rate 500 g/ha) was 100% in each case. Besides, the “efficacy (caterpillars killed)” value in the data set on Spodoptera frugiperda (application rate 100 g/ha) and with Spodoptera frugiperda (application rate 500 g/ha) was 100% throughout.
`N#Cc1ccc(CNC(=O)c2cc(-c3ccc(OC(F)(F)F)cc3)cc(NC(=O)C3(Cl)CC3)n2)cc1` [Example I-205] came in with an LOGP_NEUTRAL in data set [1] (setting [3]) of 4.62. In addition, in the data set on Phaedon cochleariae (application rate 500 g/ha), the “efficacy (beetle larvae killed)” value is reported as 100%. Also, the “efficacy (caterpillars killed)” value in the data set on Spodoptera frugiperda (application rate 100 g/ha) and in the data set with Spodoptera frugiperda (application rate 500 g/ha) was 100% in each case.
Regarding `CC(C)(C)C(=O)Nc1cc(-c2ccc(OC(F)(F)F)cc2)cc(C(=O)NCc2ccc(C#N)cc2)n1` [Example I-206], in data set [1] (setting [3]), the LOGP_NEUTRAL is on record as 4.45. Moreover, the “efficacy (beetle larvae killed)” value in the data set with Phaedon cochleariae (application rate 500 g/ha) was 100%. Also, the “efficacy (caterpillars killed)” value with Spodoptera frugiperda (application rate 100 g/ha) and in the data set with Spodoptera frugiperda (application rate 500 g/ha) was 100% each time.
`N#Cc1ccc(CNC(=O)c2cc(-c3cccc(OC(F)(F)F)c3)cc(NC(=O)C3CC3)n2)cc1` [Example I-208] registered an LOGP_HCOOH in data set [1] (setting [2]) of 3.81. Moreover, the LOGP_NEUTRAL in data set [1] (setting [3]) was determined as 3.71. Besides, the “efficacy (beetle larvae killed)” value in the data set on Phaedon cochleariae (application rate 100 g/ha) and with Phaedon cochleariae (application rate 500 g/ha) was 100% in each case. Further, the “efficacy (caterpillars killed)” value with Spodoptera frugiperda (application rate 100 g/ha) is 100%.
Regarding `NC(=S)c1ccc(CNC(=O)c2cc(-c3ccc(OC(F)(F)F)cc3)cc(NC(=O)C3CC3)n2)cc1` [Example I-214], the LOGP_HCOOH in data set [1] (setting [2]) was 3.45. In addition, the LOGP_NEUTRAL in data set [1] (setting [3]) was determined as 3.35. Also, the “efficacy (beetle larvae killed)” value in the data set with Phaedon cochleariae (application rate 100 g/ha) was found to be 83%. In addition, the “efficacy (caterpillars killed)” value in the data set with Spodoptera frugiperda (application rate 100 g/ha) and in the data set on Spodoptera frugiperda (application rate 500 g/ha) was 100% each time.
Consider `CN(C(=O)C1CC1)c1cc(-c2ccc(OC(F)(F)F)cc2)cc(C(=O)NCc2ccc(C#N)cc2)n1` [Example I-215, N-(4-Cyanobenzyl)-6-[(cyclopropylcarbonyl)(methyl)amino]-4-[4-(trifluoromethoxy)phenyl]pyridine-2-carboxamide], for which the LOGP_HCOOH in data set [1] (setting [2]) is on record as 3.85. Besides, the LOGP_NEUTRAL in data set [1] (setting [3]) stood at 3.84. The chromatographic logP in data set [1] (setting [4]) came out at 3.85; in data set [1] (setting [5]), 3.84. Further, the pest or weed control at 100 g/ha came to 100% in the data set with Phaedon cochleariae (application rate 100 g/ha) and 100% in the data set with Spodoptera frugiperda (Spodoptera frugiperda, foliar, 168 h, application rate 100 g/ha, read-out: efficacy (caterpillars killed)). The pest or weed control at 500 g/ha in the data set with Spodoptera frugiperda (setting [6]) was determined as 83%.
In the case of `CC(C)ONC(=O)c1cc(-c2ccc(OC(F)(F)F)cc2)cc(NC(=O)C2CC2)n1` [Example I-237, 6-[(Cyclopropylcarbonyl)amino]-N-isopropoxy-4-[4-(trifluoromethoxy)phenyl]pyridine-2-carboxamide], the LOGP_HCOOH in data set [1] (setting [7]) worked out at 3.50. Moreover, the LOGP_NEUTRAL in data set [1] (setting [8]) was 3.45. For the same compound, the chromatographic logP in data set [1] (setting [4]) stood at 3.5; in data set [1] (setting [5]) it was 3.45. Further, the pest or weed control at 500 g/ha in the data set with Phaedon cochleariae (application rate 500 g/ha) worked out at 83%; in the data set on Spodoptera frugiperda (setting [6]) it was 100%.
`N#Cc1ccc(ONC(=O)c2cc(-c3ccc(OC(F)(F)F)cc3)cc(NC(=O)C3CC3)n2)cc1` [Example I-239] showed an LOGP_HCOOH in data set [1] (setting [7]) of 3.72. Also, the LOGP_NEUTRAL in data set [1] (setting [8]) is reported as 3.13. For the same compound, in the data set on Phaedon cochleariae (application rate 100 g/ha), the “efficacy (beetle larvae killed)” value stood at 83%. Moreover, the “efficacy (caterpillars killed)” value with Spodoptera frugiperda (application rate 500 g/ha) came out at 83%.

The record behind these values is patent US20190053492A1, “SUBSTITUTED PYRIDINE COMPOUNDS AS PESTICIDES” (Bayer CropScience Aktiengesellschaft, priority 2016, published 2019).
